Measured values: patent US20200270237A1 (priority 2017, published 2020)

target: Human α2δ-1 Subunit of Cav2.2 Calcium Channel (Homo sapiens, UniProt P54289); assay: biochemical; type: binding; conditions: not given
Sequence (P54289 25-1103): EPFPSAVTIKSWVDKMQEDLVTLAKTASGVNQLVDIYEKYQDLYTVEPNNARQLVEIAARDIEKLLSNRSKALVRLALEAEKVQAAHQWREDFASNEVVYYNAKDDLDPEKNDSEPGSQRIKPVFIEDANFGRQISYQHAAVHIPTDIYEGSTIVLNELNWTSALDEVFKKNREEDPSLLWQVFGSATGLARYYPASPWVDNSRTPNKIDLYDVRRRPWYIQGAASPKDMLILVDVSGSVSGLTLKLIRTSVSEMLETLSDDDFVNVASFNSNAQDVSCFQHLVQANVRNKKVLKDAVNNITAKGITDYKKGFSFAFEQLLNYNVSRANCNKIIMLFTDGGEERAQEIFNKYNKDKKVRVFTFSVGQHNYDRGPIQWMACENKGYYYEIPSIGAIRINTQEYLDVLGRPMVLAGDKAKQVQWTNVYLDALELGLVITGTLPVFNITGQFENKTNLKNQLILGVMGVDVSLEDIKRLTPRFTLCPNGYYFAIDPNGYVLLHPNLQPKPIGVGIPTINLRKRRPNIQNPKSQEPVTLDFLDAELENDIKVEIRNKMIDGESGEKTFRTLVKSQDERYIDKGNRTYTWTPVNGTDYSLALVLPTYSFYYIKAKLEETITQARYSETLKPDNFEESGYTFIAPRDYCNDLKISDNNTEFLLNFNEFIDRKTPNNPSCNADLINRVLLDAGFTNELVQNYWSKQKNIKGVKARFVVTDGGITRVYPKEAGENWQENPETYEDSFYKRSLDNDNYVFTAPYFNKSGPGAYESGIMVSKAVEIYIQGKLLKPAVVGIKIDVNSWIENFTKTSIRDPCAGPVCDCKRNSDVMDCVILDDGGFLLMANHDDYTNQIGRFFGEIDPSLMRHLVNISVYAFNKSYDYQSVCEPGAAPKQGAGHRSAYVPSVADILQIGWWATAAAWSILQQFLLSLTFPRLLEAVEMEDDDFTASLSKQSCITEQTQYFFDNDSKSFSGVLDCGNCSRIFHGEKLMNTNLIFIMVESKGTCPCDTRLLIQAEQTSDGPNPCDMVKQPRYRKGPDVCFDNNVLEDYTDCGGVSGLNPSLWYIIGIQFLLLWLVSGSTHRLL

| Structure (SMILES) | Ki [nM] |
| --- | --- |
| CNCC[C@@H](Oc1cccc(CN2CCC(c3cccc(O)c3)(N(C)C)CC2)c1)c1cccs1 [Example 17, (R)-3-(4-(dimethylamino)-1-(3-(3-(methylamino)-1-(thiophen-2-yl)propoxy)benzyl)piperidin-4-yl)phenol] | 100 to 500 |
| CNCCC(Oc1ccc(CN2CCC(c3ccccc3)(N(C)C)CC2)cc1)c1cccs1 (stereo not drawn) [Example 51, N,N-dimethyl-1-(4-(3-(methylamino)-1-(thiophen-2-yl)propoxy)benzyl)-4-phenylpiperidin-4-amine] | > 3000 |
| CNCCC(Oc1cccc(CN2CCC(c3ccccc3)(N(C)C)CC2)c1)c1cccs1 (stereo not drawn) [Example 2, N,N-dimethyl-1-(3-(3-(methylamino)-1-(thiophen-2-yl)propoxy)benzyl)-4-phenylpiperidin-4-amine] | 100 to 500 |
| CNCC[C@@H](OCc1cccc(CN2CCC(c3cccc(O)c3)(N(C)C)CC2)c1)c1cccs1 [Example 24, (R)-3-(4-(dimethylamino)-1-(3-((3-(methylamino)-1-(thiophen-2-yl)propoxy)methyl)benzyl)piperidin-4-yl)phenol] | 500 to 3000 |
| CNCC[C@H](OCc1cccc(CN2CCC(c3cccc(O)c3)(N(C)C)CC2)c1)c1cccs1 [Example 23, (S)-3-(4-(dimethylamino)-1-(3-((3-(methylamino)-1-(thiophen-2-yl)propoxy)methyl)benzyl)piperidin-4-yl)phenol] | > 3000 |
| CNCCC(Oc1ccc(CN2CCCc3ccccc32)c(F)c1)c1cccs1 (stereo not drawn) [Example 54, 3-(4-((3,4-Dihydroquinolin-1(2H)-yl)methyl)-3-fluorophenoxy)-N-methyl-3-(thiphen-2-yl)propan-1-amine] | > 3000 |
| CNCCC(Oc1cccc(N2C[C@@H](C)N[C@@H](C)C2)c1)c1cccs1 (stereo partly drawn) [Example 44, 3-(3-((3S,5R)-3,5-dimethylpiperazin-1-yl)phenoxy)-N-methyl-3-(thiophen-2-yl)propan-1-amine] | 100 to 500 |
| CNCCC(Oc1cccc(CN2CCC(c3cccc(O)c3)(N(C)C)CC2)c1)c1cccs1 (stereo not drawn) [Example 5, 3-(4-(Dimethylamino)-1-(3-(3-(methylamino)-1-(thiophen-2-yl)propoxy)benzyl)piperidin-4-yl)phenol] | 100 to 500 |
| CNCC[C@@H](Oc1cccc(CN2CCC(c3ccccc3)(N(C)C)CC2)c1)c1cccs1 [Example 16, (R)-N,N-dimethyl-1-(3-(3-(methylamino)-1-(thiophen-2-yl)propoxy)benzyl)-4-phenylpiperidin-4-amine] | 500 to 3000 |
| CNCCC(Oc1ccc(CN2CCc3ccccc3C2)c(F)c1)c1cccs1 (stereo not drawn) [Example 55, 3-(4-((3,4-Dihydroisoquinolin-2(1H)-yl)methyl)-3-fluorophenoxy)-N-methyl-3-(thiophen-2-yl)propan-1-amine] | > 3000 |
| CNCCC(Oc1cccc(CN2CCC(c3cccc(O)c3)CC2)c1)c1cccs1 (stereo not drawn) [Example 3, 3-(1-(3-(3-(Methylamino)-1-(thiophen-2-yl)propoxy)benzyl)piperidin-4-yl)phenol] | 100 to 500 |
| CNCC[C@H](Oc1cccc(CN2CCC(c3ccccc3)(N(C)C)CC2)c1)c1cccs1 [Example 15, (S)-N,N-dimethyl-1-(3-(3-(methylamino)-1-(thiophen-2-yl)propoxy)benzyl)-4-phenylpiperidin-4-amine] | 500 to 3000 |
| CNCCC(Oc1ccc(CCN2CCC(c3ccccc3)(N(C)C)CC2)cc1)c1cccs1 (stereo not drawn) [Example 57, N,N-dimethyl-1-(4-(3-(methylamino)-1-(thiophen-2-yl)propoxy)phenethyl)-4-phenylpiperidin-4-amine] | > 3000 |

same assay, conditions: Table 1; human α2δ-1 enriched membranes, 15 nM [3H]-Gabapentin; read-out: Ki (nM) alpha2delta Hum

| Structure (SMILES) | Ki [nM] |
| --- | --- |
| CNCCC(OCc1cccc(CN2CCC(c3ccccc3)(N(C)C)CC2)c1)c1cccs1 (stereo not drawn) [Example 20, N,N-dimethyl-1-(3-((3-(methylamino)-1-(thiophen-2-yl)propoxy)methyl)benzyl)-4-phenylpiperidin-4-amine] | 500 to 3000 |
| CNCC[C@H](OCc1cccc(CN2CCC(c3ccccc3)(N(C)C)CC2)c1)c1cccs1 [Example 21, (S)-N,N-dimethyl-1-(3-((3-(methylamino)-1-(thiophen-2-yl)propoxy)methyl)benzyl)-4-phenylpiperidin-4-amine] | > 3000 |
| CNCCC(Oc1cccc(N2CCC(c3ccccc3)(N(C)C)CC2)c1)c1cccs1 (stereo not drawn) [Example 43, N,N-dimethyl-1-(3-(3-(methylamino)-1-(thiophen-2-yl)propoxy)phenyl)-4-phenylpiperidin-4-amine] | 500 to 3000 |
| CNCC[C@@H](OCc1cccc(CN2CCC(c3ccccc3)(N(C)C)CC2)c1)c1cccs1 [Example 22, (R)-N,N-dimethyl-1-(3-((3-(methylamino)-1-(thiophen-2-yl)propoxy)methyl)benzyl)-4-phenylpiperidin-4-amine] | 500 to 3000 |

same assay, conditions: Table 2 (dual compounds); human α2δ-1 enriched membranes, 15 nM [3H]-Gabapentin; read-out: Ki (nM) alpha2delta Hum

| Structure (SMILES) | Ki [nM] |
| --- | --- |
| CNCCC(OCc1cccc(CN2CCC(c3ccccc3)(N(C)C)CC2)c1)c1cccs1 (stereo not drawn) [Example 20, N,N-dimethyl-1-(3-((3-(methylamino)-1-(thiophen-2-yl)propoxy)methyl)benzyl)-4-phenylpiperidin-4-amine] | 500 to 3000 |
| CNCC[C@H](OCc1cccc(CN2CCC(c3ccccc3)(N(C)C)CC2)c1)c1cccs1 [Example 21, (S)-N,N-dimethyl-1-(3-((3-(methylamino)-1-(thiophen-2-yl)propoxy)methyl)benzyl)-4-phenylpiperidin-4-amine] | > 3000 |
| CNCCC(Oc1cccc(N2CCC(c3ccccc3)(N(C)C)CC2)c1)c1cccs1 (stereo not drawn) [Example 43, N,N-dimethyl-1-(3-(3-(methylamino)-1-(thiophen-2-yl)propoxy)phenyl)-4-phenylpiperidin-4-amine] | 500 to 3000 |
| CNCC[C@@H](OCc1cccc(CN2CCC(c3ccccc3)(N(C)C)CC2)c1)c1cccs1 [Example 22, (R)-N,N-dimethyl-1-(3-((3-(methylamino)-1-(thiophen-2-yl)propoxy)methyl)benzyl)-4-phenylpiperidin-4-amine] | 500 to 3000 |

same assay, conditions: read-out: Ki (nM) alpha2delta Hum

| Ki [nM] | Structure (SMILES) |
| --- | --- |
| 500 to 3000 | CNCCC(OCc1cccc(N2CCN(C)CC2)c1)c1ccccc1 (stereo not drawn) [Example 40, N-methyl-3-((3-(4-methylpiperazin-1-yl)benzyl)oxy)-3-phenylpropan-1-amine] |
| > 3000 | CNCCC(Oc1cccc(-n2nc(C)cc2C)c1)c1ccccc1 (stereo not drawn) [Example 13] |
| > 3000 | CNCCC(Oc1ccc(C(=O)N2CCC(c3ccccc3)(N(C)C)CC2)cc1)c1cccs1 (stereo not drawn) [Example 56, (4-(Dimethylamino)-4-phenylpiperidin-1-yl)(4-(3-(methylamino)-1-(thiophen-2-yl)propoxy)phenyl)methanone] |
| > 3000 | CNCCC(Oc1cccc(N2CCCCC2=O)c1)c1ccccc1 (stereo not drawn) [Example 33, 1-(3-(3-(Methylamino)-1-phenylpropoxy)phenyl)piperidin-2-one] |
| 500 to 3000 | CNCCC(Oc1cccc(N2CCNCC2)c1)c1cccs1 (stereo not drawn) [Example 42, N-methyl-3-(3-(piperazin-1-yl)phenoxy)-3-(thiophen-2-yl)propan-1-amine] |
| 500 to 3000 | CC[C@@]1(N2CCN(CCc3cccc(O[C@H](CCNC)c4ccccc4)c3)CC2)CCOC(C)(C)C1 [Example 12b, (R)-3-(3-(2-(4-((R)-4-ethyl-2,2-dimethyltetrahydro-2H-pyran-4-yl)piperazin-1-yl)ethyl)phenoxy)-N-methyl-3-phenylpropan-1-amine] |
| 500 to 3000 | CNCC[C@H](Oc1ccc(CN2CCc3ccccc3C2=O)cc1)c1cccs1 [Example 50, (S)-(4-(3-(methylamino)-1-(thiophen-2-yl)propoxy)benzyl)-3,4-dihydroisoquinolin-1(2H)-one] |
| > 3000 | CNCC[C@H](Oc1cccc(CN2CCN([C@@]3(C(=O)c4ccccn4)CCOC(C)(C)C3)CC2)c1)c1cccs1 [Example 19, ((S)-2,2-dimethyl-4-(4-(3-((S)-3-(methylamino)-1-(thiophen-2-yl)propoxy)benzyl)piperazin-1-yl)tetrahydro-2H-pyran-4-yl)(pyridin-2-yl)methanone] |
| > 3000 | CNCCC(OCc1cccc(N2CCN(C)CC2=O)c1)c1ccccc1 (stereo not drawn) [Example 41, 4-Methyl-1-(3-((3-(methylamino)-1-phenylpropoxy)methyl)phenyl)piperazin-2-one] |
| > 3000 | CNCCC(Oc1cccc(N2CCN(C)CC2=O)c1)c1cccs1 (stereo not drawn) [Example 36, 4-Methyl-1-(3-(3-(methylamino)-1-(thiophen-2-yl)propoxy)phenyl)piperazin-2-one] |
| 500 to 3000 | CNCCC(Oc1cccc(N2CCN(C)CC2)c1)c1ccccc1 (stereo not drawn) [Example 35, N-methyl-3-(3-(4-methylpiperazin-1-yl)phenoxy)-3-phenylpropan-1-amine] |
| > 3000 | CNCCC(OCc1ccc(N2CCC(c3ccccc3)(N(C)C)CC2)cc1)c1cccs1 (stereo not drawn) [Example 49, N,N-dimethyl-1-(4-((3-(methylamino)-1-(thiophen-2-yl)propoxy)methyl)phenyl)-4-phenylpiperidin-4-amine] |
| > 3000 | CNCCC(Oc1ccc(CN2CCN(C)CC2)cc1)c1cccs1 (stereo not drawn) [Example 52, N-methyl-3-(4-((4-methylpiperazin-1-yl)methyl)phenoxy)-3-(thiophen-2-yl)propan-1-amine] |
| 500 to 3000 | CNCC[C@@H](OCc1cccc(CN2CCN([C@@]3(C(=O)c4ccccn4)CCOC(C)(C)C3)CC2)c1)c1ccccc1 [Example 28, ((S)-2,2-dimethyl-4-(4-(3-(((R)-3-(methylamino)-1-phenylpropoxy)methyl)benzyl)piperazin-1-yl)tetrahydro-2H-pyran-4-yl)(pyridin-2-yl)methanone] |
| 500 to 3000 | CC[C@]1(N2CCN(CCc3cccc(O[C@H](CCNC)c4ccccc4)c3)CC2)CCOC(C)(C)C1 [Example 12a, (R)-3-(3-(2-(4 ((S)-4-ethyl-2,2-dimethyltetrahydro-2H-pyran-4-yl)piperazin-1-yl)ethyl)phenoxy)-N-methyl-3-phenylpropan-1-amine] |
| > 3000 | CNCCC(Oc1cccc(N2CCCCC2=O)c1)c1cccs1 (stereo not drawn) [Example 34, 1-(3-(3-(Methylamino)-1-(thiophen-2-yl)propoxy)phenyl)piperidin-2-one] |

Second part, the compound before the results:

| Structure (SMILES) | Ki [nM] |
| --- | --- |
| CNCCC(Oc1cccc(CN2CCNCC2)c1)c1cccs1 (stereo not drawn) [Example 6, N-methyl-3-(3-(piperazin-1-ylmethyl)phenoxy)-3-(thiophen-2-yl)propan-1-amine] | 500 to 3000 |
| CNCCC(Oc1cccc(C(=O)N2CCN(C)CC2)c1)c1cccs1 (stereo not drawn) [Example 11, (3-(3-(Methylamino)-1-(thiophen-2-yl)propoxy)phenyl)(4-methylpiperazin-1-yl)methanone] | > 3000 |
| CNCCC(Oc1cccc(C(=O)N2CCOCC2)c1)c1ccccc1 (stereo not drawn) [Example 10, (3-(3-(Methylamino)-1-phenylpropoxy)phenyl)(morpholino)methanone] | > 3000 |
| CNCCC(Oc1cccc(C(=O)N2CCCCC2)c1)c1ccccc1 (stereo not drawn) [Example 8, (3-(3-(Methylamino)-1-phenylpropoxy)phenyl)(piperidin-1-yl)methanone] | > 3000 |
| CNCCC(Oc1cccc(CN2C[C@@H](C)N[C@@H](C)C2)c1)c1cccs1 (stereo partly drawn) [Example 1, 3-(3-((3,5-Dimethylpiperazin-1-yl)methyl)phenoxy)-N-methyl-3-(thiophen-2-yl)propan-1-amine] | 500 to 3000 |
